In US12077503B2, “Substituted cyclic amides and their use as herbicides” (FMC CORPORATION, priority 2015, dated 2024):

Experiments:
Assay type in all cases: in vivo
rice (Oryra sativa) = test: Test B flooded paddy test; conditions: Flood, 250 g ai/ha
Method in brief: (§1)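 Rating scale 0–100 (visual, vs untreated controls) after a 13–15 d greenhouse period; application to the flood layer, 3 cm above soil and maintained; plants at 2-leaf stage when treated.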

[1] = test system: sedge, umbrella (small-flower umbrella sedge, Cyperus difformis); test: Test B flooded paddy test; conditions: 250 g ai/ha, Flood, 0 to 100 scale where 0 is no effect and 100 is complete control
Method in brief: as §1

[2] = test system: barnyardgrass (Echinochloa crus-galli); test: Test B flooded paddy test; conditions: Flood, 250 g ai/ha
Method in brief: as §1

[3] = test system: ducksalad (Heteranthera limosa); test: Test B flooded paddy test; conditions: Flood, 250 g ai/ha
Method in brief: as §1

Kochia (Kochia scoparia) [4] = test: Test A preemergence
Method in brief: (§2)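 Ratings of 0 (no effect) to 100 (complete control) come from visual comparison with untreated controls roughly 10 d after treatment. Test chemicals, formulated in a non-phytotoxic solvent mixture with surfactant, were applied either as a preemergence directed soil spray on seeded soil or postemergence to one- to two-leaf plants 2 to 10 cm tall.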

[5] = test system: giant foxtail (Setaria faberii); test: Test A preemergence
Method in brief: as §2

[6] = test system: pigweed (Amaranthus retroflexus); test: Test A preemergence
[7] = test system: barnyardgrass (Echinochloa crus-galli); test: Test A preemergence
Method in brief: as §2

[8] = test system: ryegrass, Italian (Italian ryegrass, Lolium multiflorum); test: Test A preemergence
Method in brief: as §2

[9] = test system: ragweed (common ragweed, Ambrosia elatior); test: Test A preemergence
Method in brief: as §2

Kochia (Kochia scoparia) [10] = test: Test A postemergence
Method in brief: as §2

corn (Zea mays) = test: Test A postemergence
Method in brief: as §2

[11] = test system: giant foxtail (Setaria faberii); test: Test A postemergence
Method in brief: as §2

[12] = test system: pigweed (Amaranthus retroflexus); test: Test A postemergence
Method in brief: as §2

[13] = test system: blackgrass (Alopecurus myosuroides); test: Test A postemergence
Method in brief: as §2

[14] = test system: wheat (Triticum aestivum); test: Test A postemergence
Method in brief: as §2

[15] = test system: Galium (catchweed bedstraw, Galium aparine); test: Test A postemergence
Method in brief: as §2

[16] = test system: barnyardgrass (Echinochloa crus-galli); test: Test A postemergence
Method in brief: as §2

[17] = test system: ryegrass, Italian (Italian ryegrass, Lolium multiflorum); test: Test A postemergence
Method in brief: as §2

[18] = test system: ragweed (common ragweed, Ambrosia elatior); test: Test A postemergence
Method in brief: as §2

[19] = scale of 0 to 100 where 0 is no effect and 100 is complete control
[20] = 125 g ai/ha, Preemergence, visual injury rating after approximately 10 d
[21] = 500 g ai/ha, preemergence, visual injury rating about 10 d after treatment, 0 to 100 scale (0 no effect, 100 complete control)
[22] = 125 g ai/ha, Postemergence, visual injury after approximately 10 d, 0 to 100 scale where 0 is no effect and 100 is complete control
[23] = 0 to 100 scale where 0 is no effect and 100 is complete control, 13 to 15 d
[24] = 125 g ai/ha, Preemergence, visual injury after approximately 10 d, 0 to 100 scale where 0 is no effect and 100 is complete control
[25] = Preemergence, 500 g ai/ha, visual injury approx. 10 d
[26] = 125 g ai/ha, postemergence, visual rating after approx. 10 d, 0 to 100 scale (0 no effect, 100 complete control)
[27] = Postemergence, 500 g ai/ha, 0 to 100 scale where 0 is no effect and 100 is complete control

Structure (SMILES): Cc1ccc([C@H]2CN(C)C(=O)[C@@H]2C(=O)Nc2ccccc2[S+](C)[O-])cc1F (some centres unmarked) [Compound 988]
- Rice plant response rating (rice (Oryra sativa); [19]): 20
- Sedge, Umbrella plant response rating [1]: 0
- Barnyardgrass plant response rating [2, 19]: 75
- Ducksalad plant response rating [3, 19]: 100
- Kochia plant response rating (0 to 100 scale, 0 is no effect, 100 is complete control) (Kochia (Kochia scoparia) [4]; [20]): 30
- Kochia plant response rating (Kochia (Kochia scoparia) [4]; [21]): 80
- Foxtail, Giant plant response rating (0 to 100 scale, 0 is no effect, 100 is complete control) [5, 20]: 90
- Foxtail, Giant plant response rating [5, 21]: 90
- Pigweed plant response rating (0 to 100 scale, 0 is no effect, 100 is complete control) [6, 20]: 30
- Pigweed plant response rating [6, 21]: 40
- Barnyardgrass plant response rating (0 to 100 scale, 0 is no effect, 100 is complete control) [7, 20]: 90
- Barnyardgrass plant response rating [7, 21]: 90
- Ryegrass, Italian plant response rating (0 to 100 scale, 0 is no effect, 100 is complete control) [8, 20]: 0
- Ryegrass, Italian plant response rating [8, 21]: 20
- Ragweed plant response rating (0 to 100 scale, 0 is no effect, 100 is complete control) [9, 20]: 50
- Ragweed plant response rating [9, 21]: 80
- Plant response rating, Kochia (Kochia (Kochia scoparia) [10]; [22]): 10
- Plant response rating, Corn (corn (Zea mays); [22]): 20
- Plant response rating, Foxtail, Giant [11, 22]: 80
- Plant response rating, Pigweed [12, 22]: 0
- Plant response rating, Blackgrass [13, 22]: 30
- Plant response rating, Wheat [14, 22]: 30
- Plant response rating, Galium [15, 22]: 50
- Plant response rating, Barnyardgrass [16, 22]: 80
- Plant response rating, Ryegrass, Italian [17, 22]: 20
- Plant response rating, Ragweed [18, 22]: 0

Structure (SMILES): CN1CC(c2c(F)cccc2F)C(C(=O)Nc2cccc(F)c2F)C1=O (centres unmarked) [Compound 547]
- Plant response rating, Rice (rice (Oryra sativa); [23]): 0
- Plant response rating, Sedge, Umbrella ([1]; 13 to 15 d): 0
- Plant response rating, Barnyardgrass [2, 23]: 0
- Plant response rating, Ducksalad [3, 23]: 0
- Plant response rating, Kochia (Kochia (Kochia scoparia) [4]; [24]): 0
- Kochia plant response rating (0 to 100 scale, 0 is no effect, 100 is complete control) (Kochia (Kochia scoparia) [4]; [25]): 0
- Plant response rating, Foxtail, Giant [5, 24]: 90
- Foxtail, Giant plant response rating (0 to 100 scale, 0 is no effect, 100 is complete control) [5, 25]: 90
- Plant response rating, Pigweed [6, 24]: 0
- Pigweed plant response rating (0 to 100 scale, 0 is no effect, 100 is complete control) [6, 25]: 0
- Plant response rating, Barnyardgrass [7, 24]: 90
- Barnyardgrass plant response rating (0 to 100 scale, 0 is no effect, 100 is complete control) [7, 25]: 90
- Plant response rating, Ryegrass, Italian [8, 24]: 0
- Ryegrass, Italian plant response rating (0 to 100 scale, 0 is no effect, 100 is complete control) [8, 25]: 0
- Plant response rating, Ragweed [9, 24]: 0
- Ragweed plant response rating (0 to 100 scale, 0 is no effect, 100 is complete control) [9, 25]: 70
- Plant response rating, Kochia (Kochia (Kochia scoparia) [10]; [26]): 0
- Plant response rating, Kochia (Kochia (Kochia scoparia) [10]; [27]): 50
- Plant response rating, Corn (corn (Zea mays); [26]): 0
- Plant response rating, Corn (corn (Zea mays); [27]): 0
- Plant response rating, Foxtail, Giant [11, 26]: 80
- Plant response rating, Foxtail, Giant [11, 27]: 90
- Plant response rating, Pigweed [12, 26]: 0
- Plant response rating, Pigweed [12, 27]: 0
- Plant response rating, Blackgrass [13, 26]: 0
- Plant response rating, Blackgrass [13, 27]: 0
- Plant response rating, Wheat [14, 26]: 0
- Plant response rating, Wheat [14, 27]: 0
- Plant response rating, Galium [15, 26]: 0
- Plant response rating, Galium [15, 27]: 20
- Plant response rating, Barnyardgrass [16, 26]: 70
- Plant response rating, Barnyardgrass [16, 27]: 90
- Plant response rating, Ryegrass, Italian [17, 26]: 0
- Plant response rating, Ryegrass, Italian [17, 27]: 0
- Plant response rating, Ragweed [18, 26]: 0
- Plant response rating, Ragweed [18, 27]: 30
